One data set deals with HSV-1 (Miyama strain). Description: microbe, parasite or virus in culture. In kind it is cell-based, herpes simplex virus type 1. The conditions noted are these: GMK cells; for log reduction at 10 µg/mL: read-out: Antiviral Activity (ΔTCID₅₀)(log₁₀), compound concentration 10 µg/ml; for log reduction at 20 µg/mL: read-out: Antiviral Activity (ΔTCID₅₀)(log₁₀), compound concentration 20 µg/ml.

Data set [1] relates to influenza virus (A/PR/8 strain). Description: microbe, parasite or virus in culture. The note with it: unidentified influenza virus, PR/8, MDCK, read-out: Antiviral Activitiy (ΔTCID₅₀)(log₁₀). In kind it is cell-based.
The subject of data set [2] is influenza virus. The conditions noted are these: from "Acta Virol.", 28, pp. 501-507 (1984); cited from earlier work.
For data set [3], the system named is influenza virus. The note with it: prior art statement; clinical efficacy not yet verified; cited from earlier work.
A further data set deals with influenza B virus. The note with it: prior art statement; cited from earlier work.
The subject of the next data set is influenza A virus. The note with it: prior art statement; cited from earlier work.
The test system of another data set is herpes virus. The note with it: from "J. Gen. Virol.", 67, pp. 1115-1122 (1986); cited from earlier work.

Structures are written as SMILES. Counter-ions that a name gives are not always drawn. Bounds are passed on as bounds.

With `CN(C)c1ccc(C(O)(C2C3CC4CC(C3)CC2C4)C23CCCN2CCC3)cc1` (stereo not shown) [Prep. Ex. 13, 1-(1-azabicyclo[3.3.0]octan-5-yl)-1-(4-dimethylaminophenyl)-1-(2-tricyclo[3.3.1.1^3.7]decyl)methan-1-ol dihydrochloride], in the data set on HSV-1 (Miyama strain) (Human alphaherpesvirus 1, GMK), the log reduction at 10 µg/mL stood at 0.77 and the log reduction at 20 µg/mL was found to be 3. The log reduction at 10 µg/mL in data set [1] was found to be 0.17. Further, the cytotoxicity with MDCK cells is listed as 0.17 (+).

With `OC(CCN1CCCCC1)(c1ccccc1)C1CC2C=CC1C2` (stereo not shown) [Akineton], the “anti influenza virus action” value in the data set with influenza virus [2] is recorded as “confirmed to have an anti influenza virus action”.

Take `OC(c1ccc(-c2ccccc2)cc1)(C1C2CC3CC(C2)CC1C3)C12CCCN1CCC2` (stereo not shown) [Prep. Ex. 29, 1-(1-azabicyclo[3.3.0]octan-5-yl)-1-(4-biphenyl)-1-(2-tricyclo[3.3.1.1^3.7]decyl)methan-1-ol hydrochloride]: the cytotoxicity in the data set on GMK cells was >3.17 (+); in the data set on MDCK cells it was >3.00 (+). Moreover, the log reduction at 10 µg/mL with HSV-1 (Miyama strain) (Human alphaherpesvirus 1, GMK) was over 3.17; in data set [1] it was over 3. The log reduction at 5 µg/mL in [1] is over 3.

Take `OC(c1ccc2ccccc2c1)(C1C2CC3CC(C2)CC1C3)C12CCCN1CCC2` (stereo not shown) [Prep. Ex. 9, 1-(1-azabicyclo[3.3.0]octan-5-yl)-1-(2-naphthyl)-1-(2-tricyclo [3.3.1.1^3.7]decyl)methan-1-ol]: the cytotoxicity with GMK cells is listed as 2.17 (-). Also, the log reduction at 5 µg/mL in the data set on HSV-1 (Miyama strain) (Human alphaherpesvirus 1, GMK, read-out: Antiviral Activity (ΔTCID₅₀)(log₁₀), compound concentration 5 µg/ml) amounted to 1.17. Also, the log reduction at 10 µg/mL with HSV-1 (Miyama strain) (Human alphaherpesvirus 1, GMK) stood at 2.17.

On to `N#C[N-]c1nncs1.[Na+]` [LY253963], for which the “activity against influenza virus in animal tests” value with influenza virus [3] is “resistant to influenza virus in animal tests”.

As to `Cc1ccccc1C(O)(C1C2CC3CC(C2)CC1C3)C12CCCN1CCC2` (stereo not shown) [Prep. Ex. 25, 1-(1-azabicyclo[3.3.0]octan-5-yl)-1-(2-methylphenyl)-1-(2-tricyclo[3.3.1.1^3.7]decyl)methan-1-ol hydrochloride], the cytotoxicity in the data set with GMK cells is >3.00 (+). Also, the log reduction at 10 µg/mL in the data set with HSV-1 (Miyama strain) (Human alphaherpesvirus 1, GMK) was over 3.

As to `OC(c1ccc(C(F)(F)F)cc1)(C1C2CC3CC(C2)CC1C3)C12CCCN1CCC2` (stereo not shown) [Prep. Ex. 17, 1-(1-azabicyclo[3.3.0]octan-5-yl)-1-(4-trifluoromethylphenyl)-1-(2-tricyclo[3.3.1.1³^.7]decyl)methan-1-ol hydrochloride], the cytotoxicity in the data set on GMK cells is given as 0.33 (-). Besides, in the data set with HSV-1 (Miyama strain) (Human alphaherpesvirus 1, GMK), the log reduction at 10 µg/mL is 0.33 and the log reduction at 20 µg/mL came to 0.33. Further, in [1], the log reduction at 5 µg/mL came out at 0.33, the log reduction at 10 µg/mL is 0.33 and the log reduction at 20 µg/mL worked out at 0.33.

For `COc1ccccc1C(O)(C1C2CC3CC(C2)CC1C3)C12CCCN1CCC2` (stereo not shown) [Prep. Ex. 23, 1-(1-azabicyclo[3.3.0]octan-5-yl)-1-(2-methoxyphenyl)-1-(2-tricyclo[3.3.1.1^3.7]decyl)methan-1-ol hydrochloride], in the data set on GMK cells, the cytotoxicity is on record as 0.17 (+). Moreover, the log reduction at 10 µg/mL in the data set with HSV-1 (Miyama strain) (Human alphaherpesvirus 1, GMK) amounted to 0.17.

For `CC(N)C12CC3CC(CC(C3)C1)C2` (stereo not shown) [remantadine, Remantadine], in the data set with influenza B virus, the “efficacy against influenza B virus” value was “not against influenza B virus”. Moreover, the “efficacy against influenza A virus” value in the data set with influenza A virus is “efficacious against influenza A virus”.

In the case of `COc1ccc(C(O)(C2C3CC4CC(C3)CC2C4)C23CCCN2CCC3)cc1` (stereo not shown) [Prep. Ex. 15, 1-(1-azabicyclo[3.3.0]octan-5-yl)-1-(4-methoxyphenyl)-1-(2-tricyclo[3.3.1.1^3.7]decyl)methan-1-ol hydrochloride], the cytotoxicity in the data set on GMK cells is 0.67 (-). Besides, in the data set on HSV-1 (Miyama strain) (Human alphaherpesvirus 1, GMK), the log reduction at 10 µg/mL was 0.67. Further, in [1], the log reduction at 5 µg/mL turned out to be 0, the log reduction at 10 µg/mL was over 2.17 and the log reduction at 20 µg/mL is over 3.5.

Consider `CC1(c2ccc(C(O)(C3C4CC5CC(C4)CC3C5)C34CCCN3CCC4)cc2)OCCS1` (stereo not shown) [Prep. Ex. 30, 1-(1-azabicyclo[3.3.0]octan-5-yl)-1-(4-(2-methyl-1,3-thioxolane-2-yl)phenyl)-1-(2-tricyclo[3.3.1.1^3.7]decyl)methan-1-ol], for which the figures for the cytotoxicity in the data set on GMK cells and with MDCK cells were >3.17 (+) and >3.00 (+), respectively. Besides, the log reduction at 10 µg/mL in the data set on HSV-1 (Miyama strain) (Human alphaherpesvirus 1, GMK) is over 3.17; in data set [1], over 3. In [1], the log reduction at 5 µg/mL was over 3.

On to `CC(=O)c1ccc(C(O)(C2C3CC4CC(C3)CC2C4)C23CCCN2CCC3)cc1` (stereo not shown) [Prep. Ex. 32, 1-(4-acetylphenyl)-1-(1-azabicyclo[3.3.0]octan-5-yl)-1-(2-tricyclo[3.3.1.1³^.7]decyl)methan-1-ol hydrochloride], for which the cytotoxicity in the data set with GMK cells was 0.33 (+). The log reduction at 10 µg/mL with HSV-1 (Miyama strain) (Human alphaherpesvirus 1, GMK) was 0.33. Also, in data set [1], the log reduction at 5 µg/mL is 0.5, the log reduction at 10 µg/mL is 1 and the log reduction at 20 µg/mL was 1.16.

In the case of `OC(CCN1CCCCC1)(c1ccccc1)C1C2CC3C(C2)C31` (stereo not shown) [Norakin], the “anti influenza virus action” value in the data set on influenza virus [2] is “confirmed to have an anti influenza virus action”. Further, the “anti-viral activity against herpes virus” value in the data set on herpes virus is reported as “lack in anti-viral activity against herpes virus”.

With `OC(c1ccc(F)cc1)(C1C2CC3CC(C2)CC1C3)C12CCCN1CCC2` (stereo not shown) [Prep. Ex. 10, 1-(1-azabicyclo[3.3.0]octan-5-yl)-1-(4-fluoropheyl)-1-(2-tricyclo [3.3.1.1^3.7]decyl)methan-1-ol], the log reduction at 10 µg/mL with HSV-1 (Miyama strain) (Human alphaherpesvirus 1, GMK) is 1.17. In the data set with HSV-1 (Miyama strain) (compound concentration 5 µg/ml), the “Antiviral Activity (ΔTCID₅₀)(log₁₀)” value is 0.83 (-) log₁₀. In data set [1], the log reduction at 5 µg/mL was determined as 2 and the log reduction at 10 µg/mL is over 3.17.

On to `NC12CC3CC(CC(C3)C1)C2` [Amantadine], for which the “efficacy against influenza B virus” value in the data set with influenza B virus is “not against influenza B virus”. In the data set on influenza A virus, the “efficacy against influenza A virus” value is “efficacious against influenza A virus”.

Source of the values: patent EP0558321A1 (priority 1992, dated 1993).
